Assay results published in patent US11006626B2, “Compounds for protection of cells” (Sulfateq B.V., priority 2012, dated 2021).

How the values were obtained:
Type in all cases: cell-based
apherese blood platelets = test: Apheresis platelets stored with Sul 136, platelet activation with ADP and TRAP by flow cytometry (CD62p); design: Flow cytometry ADP / Flow cytometry TRAP: unit not given here; conditions: for Flow cytometry ADP / Flow cytometry P-selectin MFI / Flow cytometry TRAP: stored at 4° C. with Sul 136
Procedure: 300 μM suspension of Sul 136 is added with a procedure, which keeps the bag content sterile and the Sul 136 is kept in suspension by frequent whirling and stored at 37° C. before it is added to the freshly harvested platelets. The Sul 136 suspension is added to three platelet bags directly from the bag. After addition, the content of the platelet bag is gently mixed. After 2 hours the first sample is drawn with a seal-docked sample bag. The sample bag is disconnected by welding and from this sample bag the samples are taken for hematology analyzing, aggregometer tests and the flow-cytometry tests. Swirling in the bag is reported by experience of the laboratory worker in the standard format. Platelets without Sul 136 put on a flatbed shaker and stored at room temperature were used as control. Another control is stored at 4° C. Platelet samples in which Sul 136 is added, are stored without shaking in a refrigerator at 4° C.
Platelet activation was performed on a Beckman Coulter FC 500 flowcytometer using CD 41 PE, CD 62p FITC, IgG1 FITC/IgG1 PE antibodies of a Beckman Coulter kit.
40 μl Dilution buffer was brought in about 15 minutes to 37° C.; 10 μl IgG FITC/IgG PE+10 μl CD41 PE was added and mixed with Vortex, incubated 5 min at room temperature; 1000 μl cold HBSS buffer was added; measurement in flowcytometer was performed.
40 μl Dilution buffer was brought in about 15 minutes to 37° C.; 10 μl CD41 PE+5 μl CD62 FITC was added and mixed with Vortex, incubated during 5 min. at room temperature; 1000 μl cold HBSS buffer was added; measurement in flowcytometer was performed.
36 μl Dilution buffer+4 μl ADP was brought in about 15 minutes to 37° C.; 10 μl CD41 PE+5 μl CD62 FITC was added and mixed with Vortex, incubated during 5 min. at room temperature; 1000 μl cold HBSS buffer was added; measurement in flowcytometer was performed.
36 μl Dilution buffer+4 μl TRAP was brought in about 15 minutes to 37° C.; 10 μl CD41 PE+5 μl CD62 FITC was added and mixed with Vortex; incubateed during 5 min. at room temperature; 1000 μl cold HBSS buffer was added; measurement in flowcytometer was performed.

blood platelets = test: Cold storage of PRP blood platelets, aggregation of thrombocytes after storage; design: key: − means that most of the thrombocytes were aggregated; a + indicates that a few cells were still viable but some cells aggregated; a ++ indicates that almost all cells were viable; conditions: 30 mM; PRP platelets stored at 4° C.; 264 hours
Procedure: PRP platelets were harvested and 2.1 ml was suspended in Poly Propylene tubes of 5 ml, closed with a stop.
Several compounds according to the invention were added to the blood platelets directly after preparing the PRP plasma and incubated during 10 minutes at 37° C. or 30 minutes at room temperature. The blood platelets with the compound were then stored at 4° C.
A control was stored under shaking conditions at room temperature. Another control was stored at 4° C. without the addition of a compound.
A sample was taken out of each tube after 264 hours after addition of the compound and tested as follows: • The color and coagulation properties were visually analysed. • The thrombocyte cells that survived were counted and it was evaluated whether the thrombocytes were aggregated. • It was evaluated if the thrombocytes still were able to function after stimulation by the addition of ADP or under influence of collagen in a 96 well plate. • The adhesion was evaluated, meaning the ability of the platelets to bind collagen in a 6 well plate preincubated with collagen. • Via an ELISA assay, it was evaluated whether thromboxane was secreted from the platelets. Thromboxane facilitates aggregation and is produced by activated blood platelets.
Table 3 provides an overview of the results of the addition of the compounds to the blood platelets and evaluates the aggregation of the thrombocytes after addition of the compound according to the invention and cooling until 4° C.

[1] = tested on: Human Embryo Kidney (HEK) 293 cells; test: Hypothermia/rewarming injury of HEK cells, trypan blue viability count
Procedure: Human Embryo Kidney (HEK) 293 cells were cultured in DMEM cell culture medium (Life Technologies, 41965-052) supplemented with fetal calf serum, penicillin and streptomycin. Cells were seeded at a density of 0.8-1.2E6 mL-1 in 25 cm2 polystyrene flasks, placed in a 37° C.
The compounds were dissolved in dimethyl sulfoxide (DMSO) to several concentrations. Before commencing experiments, this stock solution was dissolved in pre-warmed DMEM and further diluted to obtain a concentration range from 10 nM-1 mM. Cell culture medium was then replaced by these dilutions and cells were incubated in the presence of the compound for 1 hour. After incubation, lids were closed tightly and flasks were placed in a 4° C. room and cooled for 24 hours. After this cooling period, cells were placed back in the 37° C. incubator with lids closed and were allowed to rewarm for another 24 hours.
After this rewarming period, microscopic images were taken to assess cell morphology (Nikon D5100, Nikon Diaphot-TMD). Cell culture medium was collected and centrifuged (4 minutes, 2000 rpm). The supernatant was collected and pH was immediately measured to prevent equilibration of the pH by the carbonate buffer in the medium, while the pelleted cells were resuspended in 5 mL of PBS. Cells remaining in the flask were washed twice with phosphate buffered saline (PBS) while the washing product was discarded. Subsequently, the cells were trypsinized by addition of 0.5 mL of trypsine and pooled with the resuspended pellet. This cell suspension was then stained at a final concentration of 0.2% trypan blue (Sigma, T8154), followed by manual assessment of viability and cell number on a Bürker-Türk hemocytometer. To conclude the assay, cell culture medium glucose levels were measured (Roche Accutrend Plus) as an indication of metabolic activity. All of these steps were performed with care to prevent mechanical stress to influence or alter the viability of the cells after cooling.
The amount represents the % cells that survived. […] In the control, the same procedure was applied to two badges of HEK cells.

Cc1c(C)c2c(c(C)c1O)CCC(C)(C(=O)N1CCN(CC(=O)O)CC1)O2 (racemic) [SUL - 136, 2-(4-(6-hydroxy-2,5,7,8-tetramethylchroman-2-carbonyl)piperazin-1-yl)acetic acid]
Flow cytometry ADP (apherese blood platelets; Donor 2, Day 1): 2.12
Flow cytometry P-selectin MFI (apherese blood platelets; Donor 2, Day 1): 1.67 MFI
Flow cytometry TRAP (apherese blood platelets; Donor 2, Day 1): 1.88
Flow cytometry ADP (apherese blood platelets; Donor 2, Day 2): 2.53
Flow cytometry P-selectin MFI (apherese blood platelets; Donor 2, Day 2): 2.13 MFI
Flow cytometry TRAP (apherese blood platelets; Donor 2, Day 2): 2.35
Flow cytometry ADP (apherese blood platelets; Donor 2, Day 3): 3.21
Flow cytometry P-selectin MFI (apherese blood platelets; Donor 2, Day 3): 2.59 MFI
Flow cytometry TRAP (apherese blood platelets; Donor 2, Day 3): 2.76
Flow cytometry ADP (apherese blood platelets; Donor 2, Day 5): 3.19
Flow cytometry P-selectin MFI (apherese blood platelets; Donor 2, Day 5): 2.95 MFI
Flow cytometry TRAP (apherese blood platelets; Donor 2, Day 5): 3.16
Flow cytometry ADP (apherese blood platelets; Donor 2, Day 8): 3.08
Flow cytometry P-selectin MFI (apherese blood platelets; Donor 2, Day 8): 2.99 MFI
Flow cytometry TRAP (apherese blood platelets; Donor 2, Day 8): 3.22
Flow cytometry ADP (apherese blood platelets; Donor 2, Day 10): 2.83
Flow cytometry P-selectin MFI (apherese blood platelets; Donor 2, Day 10): 2.76 MFI
Flow cytometry TRAP (apherese blood platelets; Donor 2, Day 10): 2.96
Flow cytometry ADP (apherese blood platelets; Donor 2, Day 12): 2.62
Flow cytometry P-selectin MFI (apherese blood platelets; Donor 2, Day 12): 2.63 MFI
Flow cytometry TRAP (apherese blood platelets; Donor 2, Day 12): 2.73
Flow cytometry ADP (apherese blood platelets; Donor 2, Day 19): 1.99
Flow cytometry P-selectin MFI (apherese blood platelets; Donor 2, Day 19): 2.01 MFI
Flow cytometry TRAP (apherese blood platelets; Donor 2, Day 19): 2.14
Flow cytometry ADP (apherese blood platelets; Donor 3, Day 1): 2.71
Flow cytometry P-selectin MFI (apherese blood platelets; Donor 3, Day 1): 1.90 MFI
Flow cytometry TRAP (apherese blood platelets; Donor 3, Day 1): 2.08
Flow cytometry ADP (apherese blood platelets; Donor 3, Day 2): 3.49
Flow cytometry P-selectin MFI (apherese blood platelets; Donor 3, Day 2): 2.82 MFI
Flow cytometry TRAP (apherese blood platelets; Donor 3, Day 2): 3.62
Flow cytometry ADP (apherese blood platelets; Donor 3, Day 3): 4.96
Flow cytometry P-selectin MFI (apherese blood platelets; Donor 3, Day 3): 3.84 MFI
Flow cytometry TRAP (apherese blood platelets; Donor 3, Day 3): 4.42
Flow cytometry ADP (apherese blood platelets; Donor 3, Day 5): 4.84
Flow cytometry P-selectin MFI (apherese blood platelets; Donor 3, Day 5): 4.50 MFI
Flow cytometry TRAP (apherese blood platelets; Donor 3, Day 5): 5.04
Flow cytometry ADP (apherese blood platelets; Donor 3, Day 8): 4.91
Flow cytometry P-selectin MFI (apherese blood platelets; Donor 3, Day 8): 4.82 MFI
Flow cytometry TRAP (apherese blood platelets; Donor 3, Day 8): 5.24
Flow cytometry ADP (apherese blood platelets; Donor 3, Day 10): 4.25
Flow cytometry P-selectin MFI (apherese blood platelets; Donor 3, Day 10): 4.37 MFI
Flow cytometry TRAP (apherese blood platelets; Donor 3, Day 10): 5.04
Flow cytometry ADP (apherese blood platelets; Donor 3, Day 12): 3.84
Flow cytometry P-selectin MFI (apherese blood platelets; Donor 3, Day 12): 3.89 MFI
Flow cytometry TRAP (apherese blood platelets; Donor 3, Day 12): 4.20
Flow cytometry ADP (apherese blood platelets; Donor 3, Day 19): 2.37
Flow cytometry P-selectin MFI (apherese blood platelets; Donor 3, Day 19): 2.22 MFI
Flow cytometry TRAP (apherese blood platelets; Donor 3, Day 19): 2.01
Flow cytometry ADP (apherese blood platelets; donor 1, Day 1): 3.07
Flow cytometry P-selectin MFI (apherese blood platelets; donor 1, Day 1): 2.09 MFI
Flow cytometry TRAP (apherese blood platelets; donor 1, Day 1): 3.57
Flow cytometry ADP (apherese blood platelets; donor 1, Day 2): 3.28
Flow cytometry P-selectin MFI (apherese blood platelets; donor 1, Day 2): 3.04 MFI
Flow cytometry TRAP (apherese blood platelets; donor 1, Day 2): 3.78
Flow cytometry ADP (apherese blood platelets; donor 1, Day 3): 4.12
Flow cytometry P-selectin MFI (apherese blood platelets; donor 1, Day 3): 3.73 MFI
Flow cytometry TRAP (apherese blood platelets; donor 1, Day 3): 4.95
Flow cytometry ADP (apherese blood platelets; donor 1, Day 5): 4.20
Flow cytometry P-selectin MFI (apherese blood platelets; donor 1, Day 5): 4.12 MFI
Flow cytometry TRAP (apherese blood platelets; donor 1, Day 5): 5.55
Flow cytometry ADP (apherese blood platelets; donor 1, Day 8): 4.83
Flow cytometry P-selectin MFI (apherese blood platelets; donor 1, Day 8): 4.82 MFI
Flow cytometry TRAP (apherese blood platelets; donor 1, Day 8): 5.52
Flow cytometry ADP (apherese blood platelets; donor 1, Day 10): 4.46
Flow cytometry P-selectin MFI (apherese blood platelets; donor 1, Day 10): 4.48 MFI
Flow cytometry TRAP (apherese blood platelets; donor 1, Day 10): 5.52
Flow cytometry ADP (apherese blood platelets; donor 1, Day 12): 4.43
Flow cytometry P-selectin MFI (apherese blood platelets; donor 1, Day 12): 4.57 MFI
Flow cytometry TRAP (apherese blood platelets; donor 1, Day 12): 4.42
Flow cytometry ADP (apherese blood platelets; donor 1, Day 19): 2.74
Flow cytometry P-selectin MFI (apherese blood platelets; donor 1, Day 19): 2.92 MFI
Flow cytometry TRAP (apherese blood platelets; donor 1, Day 19): 2.76
flow cytometry tests (apherese blood platelets; stored at 4° C. with compound vs. platelets stored at room temperature): similar
Aggregation of blood platelets after storage (blood platelets): +
viability at 0.01 µM ([1]; Homo sapiens, HEK293, 24 h, 10 nM, 24 h at 4° C., 24 h rewarming, read-out: % cells that survived): 99.6%
viability at 0.1 µM ([1]; Homo sapiens, HEK293, 24 h, 100 nM, 24 h at 4° C., 24 h rewarming, read-out: % cells that survived): 100%
viability at 1 µM ([1]; Homo sapiens, HEK293, 24 h, 1 μM, 24 h at 4° C., 24 h rewarming, read-out: % cells that survived): 98.4%
viability at 10 µM ([1]; Homo sapiens, HEK293, 24 h, 10 μM, 24 h at 4° C., 24 h rewarming, read-out: % cells that survived): 99.5%
viability at 100 µM ([1]; Homo sapiens, HEK293, 24 h, 100 μM, 24 h at 4° C., 24 h rewarming, read-out: % cells that survived): 99.3%
viability at 1000 µM ([1]; Homo sapiens, HEK293, 24 h, 1 mM, 24 h at 4° C., 24 h rewarming, read-out: % cells that survived): 100%
% cells that survived, Mean ([1]; mean over the tested concentrations): 99%
